One may read the IC50 as the concentration needed to halve the response being measured.

This passage reports IC50 results from patent US5610303A, “Arylamino pyrimidine compound” (Ube Industries, Ltd., priority 1992, dated 1997).

Format in all cases: biochemical
Assay [1] has as its target T1, butyrylcholinesterase (Rattus norvegicus, UniProt Q9JKC1).
T1 construct: As an enzyme source, a rat serum was used; from tissue; host or cells: rat serum
In words: Butyrylcholinesterase-inhibiting activity (Test example 2; rat serum, modified Ellman method). As for the experimental part:
Butyrylcholinesterase-inhibiting activity
As an enzyme source, a rat serum was used.
The activity of butyrylcholinesterase was measured by a partially modified method of the above method of Ellman et. al. That is, to the rat serum suitably diluted with a 0.1M phosphate buffer were added each compound to be tested, DTNB and butyrylthiocholine as a substrate, and the mixture was incubated at 25° C. for a predetermined time.
(§1) Enzyme activity-inhibiting rates were calculated from absorbances in the presence of the compounds to be tested having various concentrations based on absorbances in the absence of the compounds to be tested, with absorbance when reaction was carried out in the absence of the substrate being defined as blank. IC50 values were calculated by Hill analysis.
(DTNB colorimetry detects thiols as they appear.)

Assay [2] addresses T2, A type monoamine oxidase (Rattus norvegicus, UniProt P21396).
T2 construct: a rat cerebrum homogenized in a 0.1M phosphate buffer was used; from tissue; host or cells: rat cerebrum homogenate
T2 sequence (P21396 1-526): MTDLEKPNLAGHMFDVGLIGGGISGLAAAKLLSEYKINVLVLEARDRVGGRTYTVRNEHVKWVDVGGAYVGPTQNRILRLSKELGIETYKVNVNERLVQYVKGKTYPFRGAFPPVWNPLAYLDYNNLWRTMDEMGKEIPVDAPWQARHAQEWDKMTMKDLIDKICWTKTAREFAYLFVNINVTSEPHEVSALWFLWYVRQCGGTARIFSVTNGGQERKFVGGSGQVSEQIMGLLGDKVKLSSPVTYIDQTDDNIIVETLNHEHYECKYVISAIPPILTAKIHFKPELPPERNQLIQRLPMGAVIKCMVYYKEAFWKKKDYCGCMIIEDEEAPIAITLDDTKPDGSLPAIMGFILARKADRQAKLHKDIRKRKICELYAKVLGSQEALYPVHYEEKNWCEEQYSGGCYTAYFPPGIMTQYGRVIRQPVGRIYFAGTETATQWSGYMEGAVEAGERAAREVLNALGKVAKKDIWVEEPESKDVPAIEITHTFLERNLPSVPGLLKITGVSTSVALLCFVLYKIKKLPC
Put plainly: A type monoamine oxidase-inhibiting activity (Test example 3; rat cerebrum homogenate, 14C-5-HT substrate). To be noted: 5-HT 200 μM, preincubated 37° C. 30 minutes, Hill analysis, read-out: IC50 value, Inhibition of A type monoamine oxidase. As for the experimental part:
(§2) A type and B type monoamine oxidase-inhibiting activity
(§3) As an enzyme source, a rat cerebrum homogenized in a 0.1M phosphate buffer was used.
(§4) That is, the rat cerebrum homogenate suitably diluted with a 0.1M phosphate buffer and each compound to be tested were preincubated at 37° C. for 30 minutes. […] After the mixture was separated into two layers by centrifugation, a part of the organic layer was mixed with liquid scintillation cocktail. Radioactivity extracted into the organic layer was measured by a liquid scintillation counter to calculate the enzyme activity.
(§5) Inhibiting rates were calculated from enzyme activities in the presence of the compounds to be tested having various concentrations based on enzyme activities in the absence of the compounds to be tested, with absorbance when reaction was carried out in the absence of the homogenate being defined as blank. IC50 values were calculated by Hill analysis.

The target of assay [3] is T3, B type monoamine oxidase (Rattus norvegicus, UniProt P19643).
T3 construct: a rat cerebrum homogenized in a 0.1M phosphate buffer was used; from tissue; host or cells: rat cerebrum homogenate
T3 sequence (P19643 1-520): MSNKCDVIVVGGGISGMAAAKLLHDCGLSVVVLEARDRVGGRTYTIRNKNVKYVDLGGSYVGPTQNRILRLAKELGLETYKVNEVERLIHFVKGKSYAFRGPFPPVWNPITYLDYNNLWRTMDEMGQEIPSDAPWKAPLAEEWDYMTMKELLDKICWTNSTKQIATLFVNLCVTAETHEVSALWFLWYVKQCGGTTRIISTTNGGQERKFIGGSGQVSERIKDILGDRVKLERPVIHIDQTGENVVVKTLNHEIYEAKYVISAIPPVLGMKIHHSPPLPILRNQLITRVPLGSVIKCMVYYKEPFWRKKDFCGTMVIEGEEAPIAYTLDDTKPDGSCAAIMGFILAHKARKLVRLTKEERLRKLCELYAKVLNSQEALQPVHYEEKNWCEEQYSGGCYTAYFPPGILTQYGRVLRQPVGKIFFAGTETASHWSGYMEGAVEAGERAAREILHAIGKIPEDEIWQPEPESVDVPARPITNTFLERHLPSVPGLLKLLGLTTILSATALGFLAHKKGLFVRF
In words: B type monoamine oxidase-inhibiting activity (Test example 3; rat cerebrum homogenate, 14C-β-PEA substrate). To be noted: β-PEA 20 μM, preincubated 37° C. 30 minutes, Hill analysis, read-out: IC50 value, Inhibition of B type monoamine oxidase. As for the experimental part: as §2, §3, §4, §5

In assay [4] the target is T4, acetylcholinesterase (Rattus norvegicus, UniProt P37136).
T4 construct: a crude synaptosome fraction of a rat cerebrum was used; from tissue; host or cells: rat cerebrum, crude synaptosome fraction
Put plainly: Acetylcholinesterase-inhibiting activity (Test example 1; crude synaptosome fraction of rat cerebrum, modified Ellman method). As for the experimental part: Acetylcholinesterase-inhibiting activity
As an enzyme source, a crude synaptosome fraction of a rat cerebrum was used.
That is, to the crude synaptosome fraction of the rat cerebrum suitably diluted with a 0.1M phosphate buffer were added each compound to be tested, 5,5'-dithiobis(2-nitrobenzoic acid) (hereinafter referred to as DTNB) and acetylthiocholine as a substrate, and the mixture was incubated at 25° C. for a predetermined time.
as §1

T1 sequence (Q9JKC1 24-597): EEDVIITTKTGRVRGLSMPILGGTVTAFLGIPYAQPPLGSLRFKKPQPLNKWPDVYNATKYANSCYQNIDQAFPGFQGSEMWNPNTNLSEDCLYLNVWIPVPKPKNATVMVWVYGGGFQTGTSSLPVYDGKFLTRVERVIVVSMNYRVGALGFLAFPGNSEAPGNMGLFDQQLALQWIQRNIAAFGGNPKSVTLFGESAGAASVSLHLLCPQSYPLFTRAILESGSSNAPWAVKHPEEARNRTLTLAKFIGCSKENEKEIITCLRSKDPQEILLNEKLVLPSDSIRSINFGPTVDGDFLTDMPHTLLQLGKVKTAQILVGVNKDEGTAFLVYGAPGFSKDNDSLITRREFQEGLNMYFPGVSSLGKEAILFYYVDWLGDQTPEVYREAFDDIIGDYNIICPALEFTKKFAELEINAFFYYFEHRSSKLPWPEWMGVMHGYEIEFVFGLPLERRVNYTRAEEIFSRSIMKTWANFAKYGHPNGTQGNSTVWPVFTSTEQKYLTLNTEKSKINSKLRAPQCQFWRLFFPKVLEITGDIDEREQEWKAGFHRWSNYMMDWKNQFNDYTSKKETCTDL
T4 sequence (P37136 32-614): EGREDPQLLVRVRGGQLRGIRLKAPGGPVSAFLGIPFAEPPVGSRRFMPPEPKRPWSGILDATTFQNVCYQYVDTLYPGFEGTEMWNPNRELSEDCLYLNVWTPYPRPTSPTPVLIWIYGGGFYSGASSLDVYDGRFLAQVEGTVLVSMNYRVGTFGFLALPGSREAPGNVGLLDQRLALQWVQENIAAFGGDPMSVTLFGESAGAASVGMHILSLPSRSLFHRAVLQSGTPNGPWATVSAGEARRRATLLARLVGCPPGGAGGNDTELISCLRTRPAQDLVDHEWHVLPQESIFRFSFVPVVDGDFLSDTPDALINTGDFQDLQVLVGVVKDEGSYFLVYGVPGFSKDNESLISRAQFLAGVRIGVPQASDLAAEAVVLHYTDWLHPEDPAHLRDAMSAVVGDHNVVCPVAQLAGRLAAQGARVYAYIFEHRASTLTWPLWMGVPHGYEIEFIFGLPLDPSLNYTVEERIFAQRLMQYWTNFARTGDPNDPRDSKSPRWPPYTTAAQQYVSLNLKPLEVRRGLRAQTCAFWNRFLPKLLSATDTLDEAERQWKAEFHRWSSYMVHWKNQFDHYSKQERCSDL

As for `N#Cc1ccc(Nc2ncnc3c2CCC3)cc1` [Compound B, 4-(4-cyanoanilino)-5,6-dihydro-7H-cyclopenta[d]pyrimidine, reference compound], the IC50 in assay [1] is over 10 µM; in assay [2] it was 0.16 µM; in assay [3] it was over 10 µM; in assay [4], over 10 µM.

As for `Cc1ncnc(Nc2ccc(C(=O)/C=C/C3CCN(Cc4ccccc4)CC3)cc2)c1C` [Example 1, (E)-N-(5,6-dimethylpyrimidin-4-yl)-4-[3-(1-benzyl-piperidin-4-yl)propenoyl]aniline], the IC50 in assay [1] is over 10 µM; in assay [2], 1.6 µM; in assay [3], over 10 µM; in assay [4] it was 0.0033 µM.

In the case of `Cc1ncnc(Nc2ccc(C(=O)CCC3CCN(Cc4ccccc4)CC3)cc2)c1C` [Example 2, N-(5,6-dimethylpyrimidin-4-yl)-4-[3-(1-benzylpiperidin-4-yl)propanoyl]aniline], the IC50 is over 10 µM in assay [1], 0.89 µM in assay [2], over 10 µM in assay [3] and 0.0036 µM in assay [4].

Regarding `O=C(/C=C/C1CCN(Cc2ccccc2)CC1)c1ccc(Nc2ncnc3c2CCC3)cc1` [Example 6, (E)-N-(5,6-dihydro-7H-cyclopenta[d]pyrimidin-4-yl)-4-[3-(1-benzylpiperidin-4-yl)propenoyl]aniline], the IC50 in assay [1] was over 10 µM; in assay [2], 0.22 µM; in assay [3], over 10 µM; in assay [4], 0.0031 µM.

For `O=C(CCC1CCN(Cc2ccccc2)CC1)c1ccc(Nc2ncnc3c2CCC3)cc1` [Example 8, N-(5,6-dihydro-7H-cyclopenta[d]pyrimidin-4-yl)-4-[3(1-benzylpiperidin-4-yl)propanoyl]aniline. 2HCl], the IC50 in assay [1] is over 10 µM; in assay [2], 0.085 µM; in assay [3] it was over 10 µM; in assay [4] it was 0.002 µM.

`O=C(/C=C/C1CCN(Cc2ccccc2)CC1)c1ccc(Nc2ncnc3c2CCCC3)cc1` [Example 9, (E)-N-(5,6,7,8-tetrahydroquinazolin-4-yl)-4-[3-(1-benzylpiperidin-4-yl)propenoyl]aniline]: the half-inhibitory concentration (IC50) in assay [1] is over 10 µM; in assay [2], 1.4 µM; in assay [3], over 10 µM; in assay [4] it was 0.0014 µM.

On to `O=C(CCC1CCN(Cc2ccccc2)CC1)c1ccc(Nc2ncnc3c2CCCC3)cc1` [Example 10, N-(5,6,7,8-tetrahydroquinazolin-4-yl)-4-[3-(1-benzyl-piperidin-4-yl)propanoyl]aniline], for which the IC50 is over 10 µM in assay [1], 0.32 µM in assay [2], over 10 µM in assay [3] and 0.0011 µM in assay [4].

Consider `O=C1C(=CC2CCN(Cc3ccccc3)CC2)Cc2cc(Nc3ncnc4c3CCC4)ccc21` [Example 21, 4-[1-Oxo-2-(1-benzylpiperidin-4-yl)methyleneindan-5-yl]amino-5,6-dihydro-7H-cyclopenta[d]pyrimidine], for which the concentration for half-maximal inhibition (IC50) in assay [1] is over 10 µM; in assay [2] it was 0.6 µM; in assay [3], over 10 µM; in assay [4] it was 0.02 µM.

With `O=C1c2ccc(Nc3ncnc4c3CCC4)cc2CC1CC1CCN(Cc2ccccc2)CC1` (stereo not drawn) [Example 22, 4-[1-Oxo-2-(1-benzylpiperidin-4-yl)methylindan-5-yl]amino-5,6-dihydro-7H-cyclopenta[d]pyrimidine], the IC50 in assay [1] was over 10 µM; in assay [2], 0.81 µM; in assay [3], over 10 µM; in assay [4], 0.0073 µM.

Take `Cc1cncnc1Nc1ccc(C(=O)CC2CCN(Cc3ccccc3)CC2)cc1` [Example 25, N-(5-methylpyrimidin-4-yl)-4-[(1-benzylpiperidin-4-yl)acetyl]aniline]: the IC50 in assay [1] was over 10 µM; in assay [2] it was 0.34 µM; in assay [3], 6.8 µM; in assay [4], 0.25 µM.

In the case of `O=C(CC1CCN(Cc2ccccc2)CC1)c1ccc(Nc2ncnc3c2CCC3)cc1` [Example 26, N-(5,6-dihydro-7H-cyclopenta[d]pyrimidin-4-yl)-4-[(1-benzylpiperidin-4-yl)acetyl]aniline], the IC50 in assay [1] is over 10 µM; in assay [2], 0.056 µM; in assay [3], over 10 µM; in assay [4], 0.15 µM.

Consider `O=C(CCC1CCN(Cc2ccccn2)CC1)c1ccc(Nc2ncnc3c2CCC3)cc1` [Example 53, N-(5,6-dihydro-7H-cyclopenta-[d]pyrimidin-4-yl)-4-{3-[1-(2-pyridylmethyl)piperidin-4-yl]-propanoyl}aniline], for which the IC50 in assay [1] is over 10 µM; in assay [2], 0.085 µM; in assay [3] it was over 10 µM; in assay [4], 0.017 µM.

Turning to `O=C(CC1CCN(Cc2cccs2)CC1)c1ccc(Nc2ncnc3c2CCC3)cc1` [Example 87, N-(5,6-dihydro-7H-cyclopenta-[d]pyrimidin-4-yl)-4-{[1-(2-thienylmethyl)piperidin-4-yl]-acetyl}aniline], the IC50 is over 10 µM in assay [1], 0.035 µM in assay [2], over 10 µM in assay [3] and 0.27 µM in assay [4].

On to `Cc1cncnc1Nc1ccc(C(=O)CC2CCN(Cc3cccs3)CC2)cc1` [Example 88, N-(5-methylpyrimidin-4-yl)-4-{[1-(2-thienylmethyl)piperidin-4-yl]acetyl}aniline], for which the IC50 in assay [1] was over 10 µM; in assay [2], 0.25 µM; in assay [3], 2.1 µM; in assay [4], 0.33 µM.

With `CCc1cncnc1Nc1ccc(C(=O)CC2CCN(Cc3ccccc3)CC2)cc1` [Example 93, N-(5-ethylpyrimidin-4-yl)-4-[(1-benzylpiperidin-4-yl)-acetyl]aniline], the IC50 was over 10 µM in assay [1], 0.42 µM in assay [2], 7.2 µM in assay [3] and 0.2 µM in assay [4].
